A short description of one data set: physchem. Particulars: 25 °C, pH 7.4, aqueous buffer, kinetic from dmso stock. Here is the method: In-vitro kinetic solubilities of the compounds in PBS pH 7.4 buffer at 25° C. were determined by diluting compounds from 100% dimethyl sulfoxide (DMSO) into PBS buffer and measuring absorbance at 490, 590 and 650 nm. Stock concentrations in 100% DMSO were provided at 1-6 mM in 100% DMSO. Kinetic solubilities were determined by diluting test compounds from 100% DMSO into PBS pH 7.4 buffer, as duplicate, 10 point 2-fold serial dilution starting at 100× dilution of stock DMS solution into PBS buffer in a clear, flat bottom polystyrene assay plates. Total assay volume was 200 microliters. Solutions were mixed by plate shaking, incubated for 30 m at 25° C., and absorbance was read at 490, 590 and 650 nm. […] in PBS buffer was used as a blank. For each test compound, average optical density (GD) at each concentration was determined by averaging the blank corrected sum of absorption at 490 nm, 590 nm and 650 nm, over duplicate measurements. Turbidity threshold optical density value was set as a sum of mean plus two standard deviations of the mean of absorbances at 490, 590 and 650 nm for 1% (v/v) DMSO in PBS pH 7.4 buffer. Highest soluble concentration (micromolar) corresponded to the highest concentration at which average optical density was below optical density value set for turbidity threshold (Table 4). Amiodarone and propranolol were used as low and high solubility controls respectively.

Another data set concerns SKBR3. As to the kind of experiment: In vitro cytotoxicity assay (CellTiter-Glo), SKBR3. It is filed as cell-based, Human. The conditions noted are these: Homo sapiens, SK-BR-3, 144 h, read-out: Cytotoxicity IC50. Here is the method: (§1) Human tumor cell lines, SK-BR-3, NCI-H292, HT-29, MCF-7, NCI-N87, and FaDu were obtained from ATCC. NCI-H292, HT-29, MCF-7, and NCI-N87 cells were cultured in RPMI-1640 media (Gibco, Life Technologies) supplemented with 10% v/v heat inactivated FBS (Corning), FaDu cells were maintained in DMEM media (Gibco, Life Technologies) supplemented with 10% v/v heat inactivated FBS (Corning). SK-BR-3 cells were maintained in McCoys 5A medium (Gibco, Life Technologies) supplemented with 10% […] heat inactivated FBS (Corning) at 37° C. in a humidified incubator containing 5% CO2.
(§2) Lyophilized compounds were dissolved in 100% dry DMSO, aliquots frozen and stored at −80° C. Concentration and purity of compound stock solutions in DMSO were determined by RP-HPLC Agilent 1100 platform with 1200 DAD and SofTA ELSD detectors, and the Agilent 6150 MS system (UV/VIS, ELSD purity and MS compound identity confirmation). Shimadzu 3.0 mm×30 mm XR ODS 2.2 μm column was run at 50° C., 1.5 mL/min. Solvent A: 0.1% Formic acid in water, Solvent B: 0.08% Formic acid in methanol-Gradient: 5%-100% B in 3.0 min, 100% solvent B for 0.3 min. Concentration of compounds in 100% DMSO determined by ELS ranged from 1-6 mM.
(§3) Cells were plated in 96-well white flat-bottomed plates (Corning) at 2.0×10^3 cells per well in 100 μL culture medium. After incubation for 24 hours, test compounds were added at a range of concentrations as ten point serial dilution as duplicates or triplicates. Following further incubation for 6 days 37° C., 5% CO2, cell viability was assessed with the use of a CellTiter-Glo Luminescent Cell Viability Assay (Promega). Luminescence was measured using the GloMax instrument (Promega). […] For a subset of payloads, each treatment was independently repeated two to eight times, and IC50 values were averaged. […] Standard deviation (stdev) is shown as (N/A) for treatment performed once.
(In general: Cellular ATP, detected with luciferase, serves as a proxy for viable cell number.)

For the next data set, the system named is HT29. As to the kind of experiment: In vitro cytotoxicity assay (CellTiter-Glo), HT29. The format is cell-based, Human. Particulars: Homo sapiens, HT-29, 144 h, read-out: Cytotoxicity IC50. Here is the method:
as §1, §2, §3

The next data set concerns NCI-H292. As to the kind of experiment: In vitro cytotoxicity assay (CellTiter-Glo), NCI-H292. It is filed as cell-based, Human. The conditions noted are these: Homo sapiens, NCI-H292, 144 h, read-out: Cytotoxicity IC50. The method, then: as §1, §2, §3
A further data set deals with MCF7. As to the kind of experiment: In vitro cytotoxicity assay (CellTiter-Glo), MCF7. The format is cell-based, Human. The conditions noted are these: Homo sapiens, MCF7, 144 h, read-out: Cytotoxicity IC50. Here is the method: as §1, §2, §3
The test system of another data set is NCI-N87. The data set can be described thus: In vitro cytotoxicity assay (CellTiter-Glo), NCI-N87. The format is cell-based, Human. Particulars: Homo sapiens, NCI-N87, 144 h, read-out: Cytotoxicity IC50. The method, then: as §1, §2, §3
In another data set the test system is FaDu. As to the kind of experiment: In vitro cytotoxicity assay (CellTiter-Glo), FaDu. It is filed as cell-based, Human. Particulars: Homo sapiens, FaDu, 144 h, read-out: Cytotoxicity IC50. The method, then: as §1, §2, §3
The test system of a further data set is SKOV3. As to the kind of experiment: In vitro cytotoxicity assay (CellTiter-Glo), SKOV3. The format is cell-based. Particulars: Homo sapiens, SK-OV-3, 144 h, read-out: Cytotoxicity IC50. The method, then: (§4) Lyophilized compounds were dissolved in 100% dry DMSO, aliquots frozen and stored at −80° C. […] Shimadzu 3.0 mm×30 mm XR ODS 2.2 μm column was run at 50° C., 1.5 mL/min. Solvent A: 0.1% Formic acid in water, Solvent B: 0.08% Formic acid in methanol-Gradient: 5%-100% B in 3.0 min, 100% solvent B for 0.3 min.
as §3

In another data set the test system is BXPC3. As to the kind of experiment: In vitro cytotoxicity assay (CellTiter-Glo), BXPC3. The format is cell-based. The conditions noted are these: Homo sapiens, BXPC-3, 144 h, read-out: Cytotoxicity IC50. The method, then:
as §4, §3

One may read the solubility as the concentration that dissolves in the medium under given conditions. Usually IC50 stands for the concentration needed to halve the response being measured.

SMILES strings stand for the structures. ≈ marks a conversion by molar mass, not a printed value.

Regarding `CC[C@@]1(O)C(=O)OCc2c1cc1n(c2=O)Cc2c-1nc1cc(F)c(C)c3c1c2[C@@H](Nc1c(NCCO)c(=O)c1=O)CC3` [Compound 2], the concentration in solution in “physchem” (solubility at 30 min) was 15 µM (≈ 8.62 µg/mL). Further, the IC50 in the data set on SKBR3 is 75.4 nM; in the data set with HT29 it was 180 nM; with NCI-H292, 96 nM; in the data set on MCF7 it was 41.4 nM; in the data set with NCI-N87 it was 111 nM; in the data set on FaDu, 23.4 nM. Besides, the IC50 came to 124 nM in the data set on SKOV3 and 29.8 nM in the data set on BXPC3.
In the case of `CC[C@@]1(O)C(=O)OCc2c1cc1n(c2=O)Cc2c-1nc1cc(F)c(C)c3c1c2[C@@H](Nc1c(NCC(O)CO)c(=O)c1=O)CC3` (stereo partly drawn) [Compound 115], the solubility at 30 min in the data set “physchem” worked out at 23 µM (≈ 13.9 µg/mL). The IC50 was determined as 62.8 nM in the data set with SKBR3; 155 nM in the data set with HT29; 128 nM in the data set on NCI-H292; 47 nM in the data set with MCF7; 127 nM in the data set on NCI-N87; 56.1 nM in the data set on FaDu. Further, the values for the concentration for half-maximal inhibition (IC50) with SKOV3 and in the data set with BXPC3 were 174 nM and 55 nM, respectively.
Compound `CC[C@@]1(O)C(=O)OCc2c1cc1n(c2=O)Cc2c-1nc1cc(F)c(C)c3c1c2[C@@H](NCc1cn(CCO)nn1)CC3` [Compound 108] yielded a solubility at 30 min in the data set “physchem” of 10 µM (≈ 5.61 µg/mL). Besides, the half-maximal inhibitory concentration (IC50) was found to be 2.9 nM in the data set with SKBR3; 13.2 nM in the data set with HT29; 8.1 nM in the data set with NCI-H292; 4.4 nM in the data set with MCF7; 8.3 nM in the data set with NCI-N87; 2.4 nM in the data set with FaDu. The IC50 with SKOV3 came to 6.6 nM; in the data set with BXPC3, 2.3 nM.
In the data set “physchem”, `CC[C@@]1(O)C(=O)OCc2c1cc1n(c2=O)Cc2c-1nc1cc(F)c(C)c3c1c2[C@@H](NC(=O)Cc1cn(CCO)nn1)CC3` [Compound 66] displayed a solubility at 30 min of 21 µM (≈ 12.4 µg/mL). The IC50 in the data set on SKBR3 is 7.3 nM; in the data set with HT29, 78.1 nM; with NCI-H292 it was 24.7 nM; with MCF7 it was 23.9 nM; with NCI-N87, 30 nM; in the data set with FaDu it was 7.9 nM. Moreover, the IC50 was found to be 43.3 nM in the data set with SKOV3 and 9.8 nM in the data set on BXPC3.
As to `CC[C@@]1(O)C(=O)OCc2c1cc1n(c2=O)Cc2c-1nc1cc(F)c(C)c3c1c2[C@@H](NC(=O)CC(=O)NCCO)CC3` [Compound 12], in the data set “physchem”, the solubility at 30 min came out at 17 µM (≈ 9.6 µg/mL). The IC50 was determined as 30.5 nM with SKBR3; 318 nM in the data set on HT29; 68.6 nM in the data set on NCI-H292; 43.9 nM with MCF7; 92 nM in the data set with NCI-N87; 16.4 nM in the data set with FaDu. For the same compound, the IC50 turned out to be 151 nM with SKOV3 and 45.6 nM with BXPC3.
As for `CC[C@@]1(O)C(=O)OCc2c1cc1n(c2=O)Cc2c-1nc1cc(F)c(C)c3c1c2[C@@H](N)CC3` [Exatecan, exatecan], the concentration in solution in the data set “physchem” (solubility at 30 min) came to 24 µM (≈ 10.5 µg/mL). Also, the IC50 in the data set on SKBR3 was determined as 0.5 nM; with HT29, 1 nM; with NCI-H292, 1.3 nM; in the data set with MCF7 it was 0.4 nM; in the data set with NCI-N87, 1.2 nM; in the data set with FaDu, 0.6 nM. The half-inhibitory concentration (IC50) in the data set with SKOV3 was 0.7 nM; in the data set on BXPC3, 0.3 nM.

(Values after patent US20250101032A1, “EXATECAN DERIVATIVES AND ANTIBODY-DRUG CONJUGATES THEREOF” (priority 2021, published 2025).)
